From patent US4614746A, “5-fluorobenzonitrile derivatives for increasing the lean meat to fat ratio and/or enhancing the growth rate of warm-blooded animals” (American Cyanamid Company, priority 1985, dated 1986)

Assays:
Format in all cases: in vivo
wether lambs = assay: Evaluation in wether lambs (growth, feed efficiency, muscle, fat, carcass), eight weeks; settings: for ADG (Average daily gain): eight weeks; for Subcutaneous Fat Depth Over Loin / Muscle Cross-Sectional Area: 12th rib; for Muscle Cross-Sectional Area: longissimus dorsi
From the text: Evaluation of 3-[2-(tert-butylamino)1-hydroxyethyl]-5-fluorobenzonitrile for growth enhancement, feed efficiency improvement, increased deposition of muscle tissue and/or protein and improvement in carcass composition
To determine the effect of feeding experimental compounds to ruminants, wether lambs are randomly allotted to pens in groups of five. Three replications per treatment are used. The lambs are weighed and permitted feed and water ad libitum. The feed is weighed daily, and uneaten feed from the previous day is collected and weighed. Test lambs receive the same diet as control animals, but with the addition of experimental compound at a concentration of from 5 ppm to 20 ppm. The tests are conducted for a period of eight weeks at the end of which the lambs are again weighed, and the feed consumed calculated. The lambs are then necropsied. Eight animals per treatment are dressed, and the average cross-sectional area of the longissimus dorsi and depth of subcutaneous fat measured at the 12th rib.

CFI female mice [1] = assay: Antilipogenic evaluation of test compounds - mouse study (Example 6, procedure of Example 4); settings: for effectiveness as an antilipogenic agent: versus related analogues
Description: CFI female mice from Carworth Farms are received when they are six-weeks old. They are housed ten to a cage in air-conditioned rooms (22° C. to 25° C.) with automatically-controlled lights, 14 hours on and ten hours off. The basal diet used in these studies is Purina Laboratory Chow (see description below) which is supplied ad libitum.
Thirteen days after arrival, the mice are weighed in groups of ten and assigned at random to the different treatments. Each of the treatments is tested in three replicates, i.e., in three cages of ten mice each. There are ten cages of ten control mice each. Drugs are mixed in the diet at the dosage level indicated. Feed and water are offered ad libitum for a 12-day test period. Feed spilled is collected during the test period. At the end of the test period, the collected feed is weighed, and the mean feed consumption per cage of ten mice is determined for each treatment. The mice are weighed as a group of ten, and the weight gain determined. The mice are sacrificed by cervical dislocation. The right uterine fat pad of each mouse is removed. The fat pads for each cage of ten mice are weighed as a unit. Reduction in fat pad weights of animals is generally indicative of a reduction of total body fat of the treated animals.
Following the procedure of Example 4, the analogues of the compounds of the invention in the subject Application are evaluated as antilipogenic agents.

[2] = test system: Hubbard X Hubbard Crossbred Chicks; assay: Evaluation as feed additive in poultry (growth rate, feed utilization, carcass yield), seven weeks; settings: for Gain: seven weeks; for FE (Feed efficiency): feed/gain ratio; for FE, Percent (±) Control: percent improvement
From the text: Evaluation of 3-[2-(tert-butylamino)-1-hydroxyethyl]-5-fluorobenzonitrile as an animal feed additive for (1) the enhancement of the growth rate of poultry, (2) improvement in feed utilization thereby, (3) increase in the deposition of muscle tissue or protein in said birds and (4) improvement in the carcass quality of treated birds
One-day old Hubbard X Hubbard Crossbred Chicks, randomly allotted to pens of ten chicks (five males and five females) each.
Eight pens of chicks are used for unmedicated controls, and six pens of chicks are used at each level of drug. The duration of the experiment is seven weeks.
The controls are offered an unmedicated diet of Broiler Ration No. 453 (composition given below) and water ad libitum. Medicated chicks are offered the same diet containing the test drug at the levels indicated above, and water ad libitum. The weight of the chicks is determined at the beginning and on completion of the experiments. Weight gains and the amount of feed consumed are also determined. In addition, ten males and ten females from each group are randomly selected and sacrificed by decapitation. These birds were bled, the feathers, feet, and viscera removed, and the resulting carcass weighed.
The thus-obtained data are averaged and summarized in Table IV below, wherein the percent improvement in weight gains and feed/gain ratios are given.

CFI female mice [3] = assay: Antilipogenic evaluation of test compounds - mouse study (fat pad and body weight, 12-day feeding); settings: 12 days
Description: CFI female mice from Carworth Farms are received when they are six-weeks old. They are housed ten to a cage in air-conditioned rooms (22° C. to 25° C.) with automatically-controlled lights, 14 hours on and ten hours off. The basal diet used in these studies is Purina Laboratory Chow (see description below) which is supplied ad libitum. The following is a description of the diet to which the growth-promoting compounds were added. Meat and bone meal, dried skimmed milk, wheat germ meal, fish meal, animal liver meal, dried beet pulp, ground extruded corn, ground oat groats, soybean meal, dehydrated alfalfa metal, cane molasses, animal fat preserved with BHA, vitamin B12 supplement, calcium pantothenate, choline chloride, folic acid, riboflavin supplement, brewer's dried yeast, thiamin, niacin, vitamin A supplement, D-activated plant sterol, vitamin E supplement, calcium carbonate, dicalcium phosphate, iodized salt, ferric ammonium citrate, iron oxide, manganous oxide, cobalt carbonate, copper oxide, zinc oxide. Water is also allowed ad libitum. Thirteen days after arrival, the mice are weighed in groups of ten and assigned at random to the different treatments. Each of the treatments is tested in three replicates, i.e., in three cages of ten mice each. There are ten cages of ten control mice each. Drugs are mixed in the diet at the dosage level indicated. Feed and water are offered ad libitum for a 12-day test period. Feed spilled is collected during the test period. At the end of the test period, the collected feed is weighed, and the mean feed consumption per cage of ten mice is determined for each treatment. The mice are weighed as a group of ten, and the weight gain determined. The mice are sacrificed by cervical dislocation. The right uterine fat pad of each mouse is removed. The fat pads for each cage of ten mice are weighed as a unit. Reduction in fat pad weights of animals is generally indicative of a reduction of total body fat of the treated animals.

## CC(C)(C)NCC(O)c1cc(F)cc(C#N)c1 (stereo not drawn) [3-[2-(tert-Butylamino)-1-hydroxyethyl]-5-fluorobenzonitrile]
Wether lambs; 5 ppm in diet
  AD Feed Consumed (Average daily feed consumed): 1.43 kg/day
  AD Feed Consumed, Percent (±) Control: +2.9%
  ADG, Percent (±) Control: +11.3%
  Carcass Yield: 51.80% of live weight
  Carcass Yield, Percent (±) Control: +1.8%
  FE (Feed efficiency): 6.36
  FE, Percent (±) Control: +7.0%
  Muscle Cross-Sectional Area, Percent (±) Control: +6.8%
  Subcutaneous Fat Depth Over Loin, Percent (±) Control: +23.8%
  ADG (Average daily gain): 226 g
  Subcutaneous Fat Depth Over Loin: 3.2 cm
  Muscle Cross-Sectional Area: 17.69 cm^2
Wether lambs; 10 ppm in diet
  AD Feed Consumed (Average daily feed consumed): 1.50 kg/day
  AD Feed Consumed, Percent (±) Control: +7.9%
  ADG, Percent (±) Control: +24.6%
  Carcass Yield: 51.52% of live weight
  Carcass Yield, Percent (±) Control: +1.3%
  FE (Feed efficiency): 5.91
  FE, Percent (±) Control: +13.6%
  Muscle Cross-Sectional Area, Percent (±) Control: +11.4%
  Subcutaneous Fat Depth Over Loin, Percent (±) Control: +35.7%
  ADG (Average daily gain): 253 g
  Subcutaneous Fat Depth Over Loin: 2.7 cm
  Muscle Cross-Sectional Area: 18.44 cm^2
Wether lambs; 20 ppm in diet
  AD Feed Consumed (Average daily feed consumed): 1.39 kg/day
  AD Feed Consumed, Percent (±) Control: +0.0%
  ADG, Percent (±) Control: +15.3%
  Carcass Yield: 54.15% of live weight
  Carcass Yield, Percent (±) Control: +6.5%
  FE (Feed efficiency): 5.92
  FE, Percent (±) Control: +13.5%
  Muscle Cross-Sectional Area, Percent (±) Control: +24.2%
  Subcutaneous Fat Depth Over Loin, Percent (±) Control: +57.1%
  ADG (Average daily gain): 234 g
  Subcutaneous Fat Depth Over Loin: 1.8 cm
  Muscle Cross-Sectional Area: 20.56 cm^2
CFI female mice [1]
  effectiveness as an antilipogenic agent: markedly more effective as an antilipogenic agent than its related aanalogues
[2]; 0.25 ppm in diet
  Carcass Yield: 69.46% of live weight
  Carcass Yield, Percent (±) Control: +1.0%
  Feed Consumed: 2.576 kg
  Feed Consumed, Percent (±) Control: +0.4%
  Gain, Percent (±) Control: +2.5%
  Gain: 1.105 kg
  FE (Feed efficiency): 2.333
  FE, Percent (±) Control: +2.1%
[2]; 0.5 ppm in diet
  Carcass Yield: 68.73% of live weight
  Carcass Yield, Percent (±) Control: 0.0%
  Feed Consumed: 2.571 kg
  Feed Consumed, Percent (±) Control: +0.2%
  Gain, Percent (±) Control: +5.0%
  Gain: 1.132 kg
  FE (Feed efficiency): 2.274
  FE, Percent (±) Control: +4.6%
[2]; 1 ppm in diet
  Carcass Yield: 69.66% of live weight
  Carcass Yield, Percent (±) Control: +1.3%
  Feed Consumed: 2.573 kg
  Feed Consumed, Percent (±) Control: +0.2%
  Gain, Percent (±) Control: +1.9%
  Gain: 1.097 kg
  FE (Feed efficiency): 2.350
  FE, Percent (±) Control: +1.4%
[2]; 2 ppm in diet
  Carcass Yield: 69.30% of live weight
  Carcass Yield, Percent (±) Control: +0.8%
  Feed Consumed: 2.578 kg
  Feed Consumed, Percent (±) Control: +0.4%
  Gain, Percent (±) Control: +3.3%
  Gain: 1.114 kg
  FE (Feed efficiency): 2.315
  FE, Percent (±) Control: +3.0%

## CC(C)NCC(O)c1cc(F)cc(C#N)c1 (stereo not drawn) [3-fluoro-5-[1-hydroxy-2-(isopropylamino)ethyl]-benzonitrile]
CFI female mice [1]; 100 ppm or 200 ppm in the diet
  effectiveness as an antilipogenic agent: generally more effective as an antilipogenic agent than its related analogues

## CC(C)(C)NCC(O)c1cc(F)cc(C#N)c1 (stereo not drawn) [drawing 13]
CFI female mice [3]; 25 ppm in diet
  % Change in Body Weight vs controls: +96.61%
  % Reduction in Fat Pad Weight vs Controls: -8.97%
CFI female mice [3]; 50 ppm in diet
  % Change in Body Weight vs controls: +80.51%
  % Reduction in Fat Pad Weight vs Controls: -14.04%
CFI female mice [3]; 100 ppm in diet
  % Change in Body Weight vs controls: +65.25%
  % Reduction in Fat Pad Weight vs Controls: -29.65%
CFI female mice [3]; 200 ppm in diet
  % Change in Body Weight vs controls: +55.93%
  % Reduction in Fat Pad Weight vs Controls: -38.13%

## CC(C)NCC(O)c1cc(F)cc(C#N)c1 (stereo not drawn) [drawing 14]
CFI female mice [3]; 3 ppm in diet
  % Change in Body Weight vs controls: +0.73%
CFI female mice [3]; 6 ppm in diet
  % Change in Body Weight vs controls: +40.88%
  % Reduction in Fat Pad Weight vs Controls: +5.91%
CFI female mice [3]; 12.5 ppm in diet
  % Change in Body Weight vs controls: +26.28%
  % Reduction in Fat Pad Weight vs Controls: -11.76%
CFI female mice [3]; 25 ppm in diet
  % Change in Body Weight vs controls: +29.20%
  % Reduction in Fat Pad Weight vs Controls: +9.76%
CFI female mice [3]; 50 ppm in diet
  % Change in Body Weight vs controls: +78.10%
  % Reduction in Fat Pad Weight vs Controls: +9.90%
CFI female mice [3]; 100 ppm in diet
  % Change in Body Weight vs controls: +56.93%
  % Reduction in Fat Pad Weight vs Controls: -17.71%
CFI female mice [3]; 200 ppm in diet
  % Change in Body Weight vs controls: +88.32%
  % Reduction in Fat Pad Weight vs Controls: -33.29%
CFI female mice [1]; 100 ppm
  Mouse Test Fat Pad Weight % ± Control: -17.7%
CFI female mice [1]; 200 ppm
  Mouse Test Fat Pad Weight % ± Control: -33.3%
